The values below come from patent US9732094B2, “Arylquinazolines” (Merck Patent GmbH, priority 2013, dated 2017).

The structures appear in SMILES notation. Like-named read-outs stand apart in the source and are kept apart here. Where only a bound is given, the exact number is not on record here.

One series has as its target DNA-PK (Homo sapiens (Human), UniProt P78527). Briefly: DNA-PK assay (biochemical), flashplate 33P-ATP kinase assay. The conditions noted are these: biochemical DNA-PK assay. Summed up:
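Reactions ran in streptavidin-coated flashplates and were halted by 200 mM EDTA, with a further 30 min at room temperature before saline washing.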

Series [1] has as its target DNA-PK phosphorylation at serine 2056 (Homo sapiens (Human), UniProt P78527). Nature of the series: DNA-PK phosphorylation at serine 2056 (cellular), bleomycin-treated HCT116 cells, ELISA. The series is classed as cell-based. The conditions noted are these: cellular DNA-PK phosphorylation at serine 2056, HCT116; read-out: IC50 pDNA-PK. The method, boiled down:
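After overnight seeding, HCT116 cells received compound with 10 μM bleomycin for 6 h; phospho-DNA-PK ELISA signals were scaled to total DNA-PKcs, DMSO serving as blank.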

For the next series, the target named is Kv11.1 (hERG) (Homo sapiens (Human), UniProt Q12809). Nature of the series: Kv11.1 (hERG) ion channel activity (patch clamp assay), HEK293 cells transfected with hERG gene. The conditions noted are these: hERG patch clamp assay (cells without asterisk).
Chain of Kv11.1 (hERG) (Q12809 whole entry): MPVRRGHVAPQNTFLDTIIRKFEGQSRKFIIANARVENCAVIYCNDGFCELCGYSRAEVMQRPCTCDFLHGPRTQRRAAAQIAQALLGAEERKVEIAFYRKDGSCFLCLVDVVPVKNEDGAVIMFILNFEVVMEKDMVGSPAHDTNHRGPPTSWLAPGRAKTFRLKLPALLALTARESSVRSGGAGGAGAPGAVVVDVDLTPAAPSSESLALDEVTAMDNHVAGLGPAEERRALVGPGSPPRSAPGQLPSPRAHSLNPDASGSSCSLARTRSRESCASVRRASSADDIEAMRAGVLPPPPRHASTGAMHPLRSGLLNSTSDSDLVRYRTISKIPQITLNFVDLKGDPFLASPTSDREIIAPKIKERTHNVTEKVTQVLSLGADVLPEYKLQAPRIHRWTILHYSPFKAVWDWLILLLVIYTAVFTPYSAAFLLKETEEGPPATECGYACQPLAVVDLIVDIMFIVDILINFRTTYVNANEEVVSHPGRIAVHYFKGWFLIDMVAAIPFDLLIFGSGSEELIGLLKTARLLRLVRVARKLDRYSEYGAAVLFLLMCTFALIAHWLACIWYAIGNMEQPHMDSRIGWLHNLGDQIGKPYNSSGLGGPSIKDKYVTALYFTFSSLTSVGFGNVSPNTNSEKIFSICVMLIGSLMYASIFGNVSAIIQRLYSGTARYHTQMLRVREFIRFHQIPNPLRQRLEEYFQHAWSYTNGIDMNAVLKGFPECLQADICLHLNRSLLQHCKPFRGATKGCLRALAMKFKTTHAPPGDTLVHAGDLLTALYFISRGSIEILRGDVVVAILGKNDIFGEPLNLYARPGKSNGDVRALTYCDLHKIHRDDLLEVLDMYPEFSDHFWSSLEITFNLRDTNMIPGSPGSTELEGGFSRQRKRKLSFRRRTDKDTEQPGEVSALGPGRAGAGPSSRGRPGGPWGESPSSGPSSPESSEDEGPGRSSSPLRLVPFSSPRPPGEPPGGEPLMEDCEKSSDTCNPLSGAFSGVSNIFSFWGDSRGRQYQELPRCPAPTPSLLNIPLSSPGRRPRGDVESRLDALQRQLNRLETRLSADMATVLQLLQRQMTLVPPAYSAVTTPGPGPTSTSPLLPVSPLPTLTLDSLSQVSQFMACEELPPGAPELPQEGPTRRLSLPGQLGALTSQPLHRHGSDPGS

Experimental for Kv11.1 (hERG): C) Kv11.1 (hERG) Ion Channel Activity (Patch Clamp Assay)
The patch-clamp measurement was carried out at room temperature in whole-cell configuration on human embryonic kidney cells (HEK293) which have been transfected in a stable manner with the hERG gene.
The whole-cell configurations were carried out using an automated patch clamp device (Patchliner™, Nanion Technologies, Munich). […] The glass chip has a hole of defined size to which the cell is transferred into the Gigaseal by application of a reduced pressure and brought into the whole-cell configuration. Buffer, cell suspension and test substances were added to microchannels of the chip using a Teflon-coated pipette. The cells were clamped to a holding potential of −80 mV. For measurement of substance-promoted inhibition of the Kv11.1 channel, the following voltage protocol was applied at 10-second intervals: 51 ms/−80 mV, 500 ms/+40 mV, 500 ms/−40 mV, 200 ms/−80 mV. The leakage current is subtracted by means of the P4 method. The cells were resuspended in extracellular buffer (EC) and applied to the chip. After the cell had been collected, the seal was improved by addition of a seal enhancer buffer. As soon as the whole-cell configuration had been reached, the seal enhancer buffer was washed out and replaced by extracellular buffer. The measurement started in EC for 1.5 min. DMSO (vehicle control, 0.1% of DMSO) was then applied, and the control current was recorded for 3 min. The test substance was subsequently added twice in the same concentration, and the potassium current was measured for 3.5 min in each case.
The reference substance used was the Kv11.1 (hERG) ion channel blocker quinidine. The effects of test substances and quinidine were standardised to the associated vehicle control. The effect on the Kv11.1 (hERG) channel activity was assessed from the potassium current at −40 mV. For the calculation, the current was evaluated for the respective final trace.
During the measurement, an aliquot of the test substance was taken for concentration determination. The sample was measured immediately by HPLC, and the final concentration was determined from a calibration curve.

`COc1ccc(C(C(N)=O)c2cc(-c3ncnc4cc(N5CCOCC5)ccc34)ccc2Cl)nn1` (stereo not drawn) [Example 310, 2-[2-Chloro-5-(7-morpholin-4-yl-quinazolin-4-yl)-phenyl]-2-(6-methoxy-pyridazin-3-yl)acetamide]: the results for the IC50 (against DNA-PK; in series [1]) were greater than 0.03 µM and 10 to 30 µM, respectively. At Kv11.1 (hERG) (Ki [Kv1.11 hERG]), the Ki was in the range of 15 to 25 µM.
Take `Cn1nc(C(C(N)=O)c2cc(-c3ncnc4cc(N5CCOCC5)ccc34)c(F)cc2Cl)ccc1=O` (stereo not drawn) [Example 311, 2-[2-Chloro-4-fluoro-5-(7-morpholin-4-yl-quinazolin-4-yl)-phenyl]-2-(1-methyl-6-oxo-1,6-dihydro-pyridazin-3-yl)-acetamide]: the IC50 is greater than 0.03 µM on DNA-PK and 10 to 30 µM in series [1]. Moreover, the Ki on Kv11.1 (hERG) (read-out: Ki [Kv1.11 hERG]) is greater than 25 µM.
For `Cn1c(C(C(N)=O)c2cc(-c3ncnc4cc(N5CCOCC5)ccc34)c(F)cc2Cl)cccc1=O` (stereo not drawn) [Example 312, 2-[2-Chloro-4-fluoro-5-(7-morpholin-4-yl-quinazolin-4-yl)-phenyl]-2-(1-methyl-6-oxo-1,6-dihydro-pyridin-2-yl)-acetamide] the same measures were greater than 0.03 µM, 10 to 30 µM and greater than 25 µM.
In the case of `NC(=O)C(c1ccc(F)c(-c2ncnc3cc(N4CCOCC4)ccc23)c1)c1ncccc1Cl` (stereo not drawn) [Example 313, 2-(3-Chloro-pyridin-2-yl)-2-[4-fluoro-3-(7-morpholin-4-yl-quinazolin-4-yl)-phenyl]acetamide], the results for the IC50 (at DNA-PK; in series [1]) were 0.007 to 0.03 µM and 5 to 10 µM, respectively. Besides, the Ki on Kv11.1 (hERG) (Ki [Kv1.11 hERG]) was in the range of 15 to 25 µM.
Turning to `Cc1ncc(C(O)c2ccc(F)c(-c3ncnc4cc(N5CCOCC5)ccc34)c2)nc1C` (stereo not drawn) [Example 314, (5,6-Dimethyl-pyrazin-2-yl)-[4-fluoro-3-(7-morpholin-4-yl-quinazolin-4-yl)-phenyl]methanol], the IC50 against DNA-PK lay in the range of 0.007 to 0.03 µM; in series [1] it was 0.5 to 5 µM. The compound further returned an inhibitory constant (Ki) at Kv11.1 (hERG) (Ki [Kv1.11 hERG]) of 15 to 25 µM.
Regarding `NC(=O)C(c1cc(-c2ncnc3cc(N4CCOCC4)ccc23)ccc1Cl)c1nccnc1Cl` (stereo not drawn) [Example 315, 2-[2-Chloro-5-(7-morpholin-4-yl-quinazolin-4-yl)-phenyl]-2-(3-chloro-pyrazin-2-yl)-acetamide], the IC50 is greater than 0.03 µM against DNA-PK and 10 to 30 µM in series [1]. The Ki on Kv11.1 (hERG) (Ki [Kv1.11 hERG]) lay in the range of 10 to 15 µM.
For the compound `Cn1nc(C(C(N)=O)c2ccc(F)c(-c3ncnc4cc(N5CCOCC5)ccc34)c2)ccc1=O` (stereo not drawn) [Example 317, 2-[4-Fluoro-3-(7-morpholin-4-yl-quinazolin-4-yl)-phenyl]-2-(1-methyl-6-oxo-1,6-dihydro-pyridazin-3-yl)-acetamide], the IC50 is greater than 0.03 µM against DNA-PK and 10 to 30 µM in series [1]. Further, the Ki at Kv11.1 (hERG) (Ki [Kv1.11 hERG]) lay in the range of 15 to 25 µM.
With `Cc1cnc(C(C(N)=O)c2ccc(F)c(-c3ncnc4cc(N5CCOCC5)ccc34)c2)c(C)n1` (stereo not drawn) [Example 318, 2-(3,5-Dimethyl-pyrazin-2-yl)-2-[4-fluoro-3-(7-morpholin-4-yl-quinazolin-4-yl)-phenyl]acetamide], the IC50 on DNA-PK lay in the range of 0.007 to 0.03 µM; in series [1], 10 to 30 µM. Moreover, the Ki at Kv11.1 (hERG) (read-out: Ki [Kv1.11 hERG]) is greater than 25 µM.
For `COc1nccnc1C(C(N)=O)c1cc(-c2ncnc3cc(N4CCOCC4)ccc23)c(F)cc1F` (stereo not drawn) [Example 319, 2-[2,4-Difluoro-5-(7-morpholin-4-ylquinazolin-4-yl)phenyl]-2-(3-methoxypyrazin-2-yl)acetamide] the same measures were 0.007 to 0.03 µM, 5 to 10 µM and greater than 25 µM.
For the compound `COc1nccnc1C(C(N)=O)c1cc(-c2ncnc3cc(N4CCOCC4)ccc23)c(F)cc1Cl` (stereo not drawn) [Example 320, 2-[2-Chloro-4-fluoro-5-(7-morpholin-4-yl-quinazolin-4-yl)-phenyl]-2-(3-methoxy-pyrazin-2-yl)acetamide], the IC50 at DNA-PK is 0.007 to 0.03 µM; in series [1], 0.5 to 5 µM. Further, the Ki on Kv11.1 (hERG) (read-out: Ki [Kv1.11 hERG]) was greater than 25 µM.
In the case of `NC(=O)C(c1ccc(F)c(-c2ncnc3cc(N4CCOCC4)ccc23)c1)c1c(F)cncc1F` (stereo not drawn) [Example 321, 2-(3,5-Difluoro-pyridin-4-yl)-2-[4-fluoro-3-(7-morpholin-4-yl-quinazolin-4-yl)-phenyl]acetamide], the IC50 was in the range of 0.007 to 0.03 µM against DNA-PK and 0.5 to 5 µM in series [1]. At Kv11.1 (hERG) (Ki [Kv1.11 hERG]), the inhibitory constant (Ki) is 15 to 25 µM.
For `NC(=O)C(c1ccc(F)c(-c2ncnc3cc(N4CCOCC4)ccc23)c1)c1cncc(F)c1Cl` (stereo not drawn) [Example 322, 2-(4-Chloro-5-fluoro-pyridin-3-yl)-2-[4-fluoro-3-(7-morpholin-4-yl-quinazolin-4-yl)-phenyl]acetamide] the same measures were 0.003 to 0.007 µM, 0.5 to 5 µM and 10 to 15 µM.
For `NC(=O)C(c1ccc2nccn2n1)c1cc(-c2ncnc3cc(N4CCOCC4)ccc23)c(F)cc1Cl` (stereo not drawn) [Example 323, 2-[2-Chloro-4-fluoro-5-(7-morpholin-4-yl-quinazolin-4-yl)-phenyl]-2-imidazo-[1,2-b]pyridazin-6-yl-acetamide] the same measures were 0.003 to 0.007 µM, 0.5 to 5 µM and 15 to 25 µM.
As for `Cc1nccnc1C(C(N)=O)c1cc(-c2ncnc3cc(N4CCOCC4)ccc23)c(F)cc1Cl` (stereo not drawn) [Example 324, 2-[2-Chloro-4-fluoro-5-(7-morpholin-4-yl-quinazolin-4-yl)-phenyl]-2-(3-methyl-pyrazin-2-yl)-acetamide], the IC50 on DNA-PK was 0.003 to 0.007 µM; in series [1], 0.5 to 5 µM. For the same compound, at Kv11.1 (hERG) (read-out: Ki [Kv1.11 hERG]), the inhibition constant (Ki) was greater than 25 µM.
As to `COc1ccc(C(C(N)=O)c2cc(-c3ncnc4cc(N5CCOCC5)ccc34)c(F)cc2Cl)nn1` (stereo not drawn) [Example 325, 2-[2-Chloro-4-f1uoro-5-(7-morpholin-4-yl-quinazolin-4-yl)-phenyl]-2-(6-methoxypyridazin-3-yl)acetamide], the 50% inhibitory concentration (IC50) on DNA-PK is greater than 0.03 µM; in series [1], 10 to 30 µM. On Kv11.1 (hERG) (Ki [Kv1.11 hERG]), this compound came in with a Ki of 15 to 25 µM.
Consider `Cn1nc(C(O)c2ccc(F)c(-c3ncnc4cc(N5CCOCC5)ccc34)c2)ccc1=O` (stereo not drawn) [Example 326, 6-{[4-Fluoro-3-(7-morpholin-4-yl-quinazolin-4-yl)-phenyl]hydroxy-methyl}-2-methyl-2H-pyridazin-3-one], for which the half-inhibitory concentration (IC50) lay within 0.007 to 0.03 µM at DNA-PK and 0.5 to 5 µM in series [1]. The Ki at Kv11.1 (hERG) (read-out: Ki [Kv1.11 hERG]) was greater than 25 µM.
The corresponding values for `Cc1nccnc1C(C(N)=O)c1ccc(F)c(-c2ncnc3cc(N4CCOCC4)ccc23)c1` (stereo not drawn) [Example 327, 2-[4-Fluoro-3-(7-morpholin-4-yl-quinazolin-4-yl)-phenyl]-2-{3-methyl-pyrazin-2-yl)-acetamide] are 0.007 to 0.03 µM, 10 to 30 µM and greater than 25 µM.
In the case of `OC(c1ccc(F)c(-c2ncnc3cc(N4CCOCC4)ccc23)c1)c1nccc2ccoc12` (stereo not drawn) [Example 328, [4-Fluoro-3-(7-morpholin-4-yl-quinazolin-4-yl)-phenyl)furo[2,3-c]-pyridin-7-ylmethanol], the results for the IC50 (on DNA-PK; in series [1]) were less than 0.003 µM and less than 0.5 µM, respectively. The inhibition constant (Ki) on Kv11.1 (hERG) (read-out: Ki [Kv1.11 hERG]) was less than 10 µM.
For `Cc1nccnc1C(C(N)=O)c1cc(-c2ncnc3cc(N4CCOCC4)ccc23)c(F)cc1F` (stereo not drawn) [Example 329, 2-[2,4-Difluoro-5-(7-morpholin-4-yl-quinazolin-4-yl)-phenyl]-2-(3-methyl-pyrazin-2-yl)-acetamide] the same measures were 0.007 to 0.03 µM, 5 to 10 µM and greater than 25 µM.
For `Oc1ncnc(C(O)c2cc(-c3ncnc4cc(N5CCOCC5)ccc34)ccc2Cl)c1Cl` (stereo not drawn) [Example 330, 5-Chloro-6-{[2-chloro-5-(7-morpholin-4-yl-quinazolin-4-yl)-phenyl]hydroxy-methyl}pyrimidin-4-ol] the same measures were 0.007 to 0.03 µM, 10 to 30 µM and greater than 25 µM.
Regarding `Cc1nccnc1/C(C(=O)O)=C1/C=CC(=O)C(c2ncnc3cc(N4CCOCC4)ccc23)=C1` [Example 331, (3-methyl-pyrazin-2-yl)-[3-(7-morpholin-4-ylquinazolin-4-yl)-4-oxocyclohexa-2,5-dien-(E)-ylidene]-acetic acid], the IC50 against DNA-PK was 0.007 to 0.03 µM; in series [1], 5 to 10 µM. In addition, the Ki on Kv11.1 (hERG) (read-out: Ki [Kv1.11 hERG]) was greater than 25 µM.
As for `OC(c1ccc(F)c(-c2ncnc3cc(N4CCOCC4)ccc23)c1)c1nncc2ccsc12` (stereo not drawn) [Example 332, [4-Fluoro-3-(7-morpholin-4-yl-quinazolin-4-yl)-phenyl]thieno[2,3-d}-pyridazin-7-yl-methanol], the IC50 was less than 0.003 µM at DNA-PK and less than 0.5 µM in series [1]. This compound also registered a Ki at Kv11.1 (hERG) (Ki [Kv1.11 hERG]) of 15 to 25 µM.
For `OC(c1ccc(F)c(-c2ncnc3cc(N4CCOCC4)ccc23)c1)c1nncc2sccc12` (stereo not drawn) [Example 333, [4-Fluoro-3-(7-morpholin-4-yl-quinazolin-4-yl)-phenyl]thieno[2,3-d}-pyridazin-4-yl-methanol] the same measures were less than 0.003 µM, less than 0.5 µM and 15 to 25 µM.
In the case of `Cc1cc(C(C(N)=O)c2cc(-c3ncnc4cc(N5CCOCC5)ccc34)c(F)cc2Cl)n(C)c(=O)c1` (stereo not drawn) [Example 334, 2-[2-Chloro-4-fluoro-5-(7-morpholin-4-yl-quinazolin-4-yl)-phenyl]-2-(1,4-dimethyl-6-oxo-1,6-dihydropyridin-2-yl)-acetamide], the IC50 against DNA-PK was greater than 0.03 µM; in series [1], 10 to 30 µM. Besides, at Kv11.1 (hERG) (read-out: Ki [Kv1.11 hERG]), the inhibition constant Ki was greater than 25 µM.
Regarding `OC(c1ccc(F)c(-c2ncnc3cc(N4CCOCC4)ccc23)c1)c1nncc2ccoc12` (stereo not drawn) [Example 335, [4-Fluoro-3-(7-morpholin-4-yl-quinazolin-4-yl)-phenyl]furo[2,3-d}-pyridazin-7-yl-methanol], the IC50 against DNA-PK was less than 0.003 µM; in series [1] it was less than 0.5 µM. Also, the Ki on Kv11.1 (hERG) (read-out: Ki [Kv1.11 hERG]) is greater than 25 µM.
